Measured values taken from patent US8338363B2, “Pharmaceutical compositions comprising casein derived peptides and methods of use thereof” (Mileutis Ltd., priority 2005, dated 2012).

Assay: Welfare of cows induced to dry off (Example 6): udder pressure index, steps/lying ratio
Type: in vivo, Holstein cows
Procedure: 20 Holstein cows toward the end of lactation (˜60 days) and producing 17-35 liters milk per day were entered to the study. Cows were paired according to lactation number, days in milk, days to parturition, teat-end integrity, milk yield, SCC per ml of milk per cow or quarter and number of quarters infected at day of drying-off (Table 13).
Quarter's milk SCC and bacterial isolation were tested a week apart for 3 times, before drying-off. One cow of each pair was then assigned to a subgroup randomly (by flipping a coin). Cows in subgroup 1 were treated after milking with casein hydrolyzate and with the broad range antibiotic Cefquinome, (75 mg per dose) (N+C), while the cows in subgroup 2 were treated with Cefquinome alone (75 mg per dose) (C). […]
Udder pressure index (UPI) was set as follows: 0, 1, 2 and 3, where 0 is no pressure, 1 is medium pressure, 2 is high pressure and 3 is extremely high pressure. Arbitrary UPI values were determined by assessing the udder pressure by pressing a finger into the tissue and assessing its resistant to pressure in two areas, the milk cistern and corpus ubeis, 10 cm above the teats. […]
Data were statistically analyzed using the fit model procedure for repeated measurements of JMP (Version 5, SAS Institute, Cary, N.C.); treatment was the between-subject factor and time was the within-subject factor. […]

## CO/N=C(\C(=O)N[C@@H]1C(=O)N2C(C(=O)[O-])=C(C[n+]3cccc4c3CCCC4)CS[C@H]12)c1csc(N)n1 [C, Cefquinome]
Day 4 after treatment, cow with milk yield over 30 liters per day at dry-off (FIG. 4)
  Udder pressure index (UPI), single cow: ~2
From the second day after treatment, 10 cows per group (FIG. 5)
  ratio between number of steps and duration of lying (RSL): unchanged
